Assay results reported in patent publication US12319696B2, “2,6-dimethyl-n-((pyridin-4-yl)methyl)imidazo[1,2-b]pyridazin-8-amine and 2,5-dimethyl-n-[(pyridin-4-yl)methyl]pyrazolo[1,5-a]pyrimidin-7-amine derivatives for treating viral infections” (CUROVIR AB, priority 2018, dated 2025).

Experiments:
enterovirus strain 6 = assay: microbe, parasite or virus in culture; type: cell-based; conditions: inhibition of viral CPE; for inhibition at 0.01 µM: 10 nM, read-out: Inh. at 10 nM, EV6; for inhibition at 0.1 µM: 100 nM, read-out: Inh. at 100 nM, EV6
enterovirus strain 30 = assay: Antiviral CPE inhibition assay in mammalian cell culture, EV30; type: cell-based; conditions: inhibition of viral CPE; for inhibition at 0.01 µM: 10 nM, read-out: Inh. at 10 nM, EV30; for inhibition at 0.1 µM: 100 nM, read-out: Inh. at 100 nM, EV30
enterovirus D68 = assay: Antiviral CPE inhibition assay in mammalian cell culture, EV-D68; type: cell-based; conditions: Enterovirus D, EVD68, inhibition of viral CPE; for inhibition at 0.01 µM: 10 nM, read-out: Inh. at 10 nM, EV-D68; for inhibition at 0.1 µM: 100 nM, read-out: Inh. at 100 nM, EV-D68
enterovirus strain 71 = assay: Antiviral CPE inhibition assay in mammalian cell culture, EV71; type: cell-based; conditions: inhibition of viral CPE; for inhibition at 0.01 µM: 10 nM, read-out: Inh. at 10 nM, EV71; for inhibition at 0.1 µM: 100 nM, read-out: Inh. at 100 nM, EV71
[1] = system: coxsackie B virus strain 1; assay: Antiviral CPE inhibition assay in mammalian cell culture, Cox B1; type: cell-based; conditions: for inhibition at 0.01 µM: read-out: Inh. at 10 nM, Cox B1; for inhibition at 0.1 µM: read-out: Inh. at 100 nM, Cox B1
[2] = system: coxsackie B virus strain 2; assay: Antiviral CPE inhibition assay in mammalian cell culture, Cox B2; type: cell-based; conditions: for inhibition at 0.01 µM: read-out: Inh. at 10 nM, Cox B2; for inhibition at 0.1 µM: read-out: Inh. at 100 nM, Cox B2
[3] = system: coxsackie B virus strain 3; assay: Antiviral CPE inhibition assay in mammalian cell culture, Cox B3; type: cell-based; conditions: for inhibition at 0.01 µM: read-out: Inh. at 10 nM, Cox B3; for inhibition at 0.1 µM: read-out: Inh. at 100 nM, Cox B3
[4] = system: coxsackie B virus strain 5; assay: Antiviral CPE inhibition assay in mammalian cell culture, Cox B5; type: cell-based; conditions: for inhibition at 0.01 µM: read-out: Inh. at 10 nM, Cox B5; for inhibition at 0.1 µM: read-out: Inh. at 100 nM, Cox B5
polio virus strain 1 = assay: organism not typed; type: cell-based; conditions: for inhibition at 0.01 µM: read-out: Inh. at 10 nM, Polio 1; for inhibition at 0.1 µM: read-out: Inh. at 100 nM, Polio 1
CYP3A4 = target: T1, CYP3A4 (Homo sapiens, UniProt P08684); assay: In vitro CYP 3A4 enzyme inhibition in human liver microsomes by probe substrate method; type: in vitro ADME; conditions: human liver microsomes 0.5 mg/mL; probe substrate Midazolam 5 μM
T1 construct: from tissue; host or cells: human liver microsomes
Experimental: In Vitro CYP 3A4 Enzyme Inhibition Study in Human Liver Microsomes by Probe Substrate Method
In vitro CYP3A4 enzyme inhibition assay was performed using Human liver microsomes at 0.5 mg/mL concentration. Ketoconazole was used as reference inhibitor and Midazolam was used as selective probe substrate for CYP 3A4 enzyme. Serial dilution of test/control items was prepared in potassium phosphate buffer (50 mM, pH 7.40) to obtain eight concentrations each in a 1:4 dilution pattern. The percentage of acetonitrile/DMSO was maintained at 2.5%/0.25% in 2.5× serially diluted control/test item solutions respectively. The final percentage of acetonitrile/DMSO was 1%/0.1% respectively. Intermediate solutions such as 10× working solution (5 mg/mL) of Human liver microsomal solution, 10× concentration of reference probe substrates in buffer, 5× concentrations of Cofactors (5.0 mM NADP+, 25.0 mM G-6-P, 3.0 IU/mL G-6-PDH and 10.0 mM MgCl2) were prepared in potassium phosphate buffer. The final concentration of liver microsomes in the reaction mixture was 0.5 mg/mL, cofactors was 1.0 mM NADP+, 5.0 mM G-6-P, 0.6 IU/mL G-6-PDH and 2.0 mM MgCl2. Midazolam was tested at 5 μM test concentration. 40 μL of 2.5× serially diluted test/control item solutions and 10 μL of […] liver microsomal solution were added to 96 well plate and incubated for 10 min at 37° C. with shaking condition (400 rpm) using Thermomixer. After pre incubation, 20 μL of potassium phosphate buffer, 10 μL of respective probe substrate working solution and 20 μL of cofactor mix was added.

in vivo = assay: in vivo; parameters: species or system Sprague Dawley rats; conditions: male, Sprague Dawley, rat, po, 10 mg/kg
Experimental: 10 mg of the compound was weighed and transferred to graduated tube. Then 500 μL of DMA (5% v/v) was added, vortex mixed thoroughly and sonicated till test item was completely dissolved. Then 5 mL of PEG 200 (50% v/v) were added, and vortex mixed thoroughly. Thereafter, Sterile Water for Injection (SWFI) was added in small increments and vortex mixed thoroughly. Finally, the volume was made up to 10 mL with SWFI (45% v/v) to obtain a clear solution with final formulation strength of 1 mg/mL. […] Formulation was freshly prepared before the administration to animals. Adult healthy male Sprague Dawley rats aged 8-10 weeks were used for experimentation after a minimum 3 days of acclimation. Fasted animals were administered with test compound in recommended vehicle (5% DMA+50% PEG 200+45% SWFI) by oral route at a dose of 10 mg/kg body weight and at dose volume of 10 mL/kg body weight. Under mild isoflurane anesthesia, blood specimens were collected into pre-labeled tubes containing anticoagulant (K2EDTA—2 mg/mL blood) at different time points post dose.

[5] = Metabolic stability in human liver microsomes; type: in vitro ADME; conditions: 5 μM test item, 0.25 mg/mL microsomal protein
Experimental: (§1) Metabolic stability assay was carried out using Human/Rat liver microsomes. […] Test item/Control items were incubated with Human/Rat liver microsomes with cofactors and without cofactors. The reaction mixture (100 μL) was removed at specified time period and the reaction was stopped by addition of stop solution. The samples were extracted in presence of internal standard and were analyzed using LC-MS/MS. The percent of the test/Control item remaining after specified incubation period was calculated with respect to the peak area ratio at time 0 min. […] The reaction mixture was incubated further at 37° C. for specified incubation time points (With Cofactors: 0, 15, 30, 60 and 120 min; Without Cofactors: 0 and 120 min). 100 μL incubation samples of test items and Control items at specified incubation time points were transferred to respective tubes for sample extraction. Test and Control item specimens were extracted by Protein precipitation method. A 100 μL incubation sample at each time point was added to tubes containing 200 μL of ice-cold acetonitrile and 50 μL Haloperidol solution (0.5 μg/mL). Then the tubes were vortex mixed thoroughly and centrifuged at 10000 rpm for 10 minutes at 4° C. A clear supernatant of 200 μL of samples were submitted for LC-MS/MS analysis.

[6] = Metabolic stability in rat liver microsomes; type: in vitro ADME; conditions: 5 μM test item, 0.25 mg/mL microsomal protein
Experimental: as §1

[7] = Human plasma protein binding (Rapid Equilibrium Dialysis); type: in vitro ADME; conditions: pH 7.4, RED device, 37° C.
Experimental: (§2) Plasma protein binding study was performed using a Rapid Equilibrium Dialysis (RED) device containing dialysis membrane with a molecular weight cut-off of 8,000 Daltons. Each dialysis insert contained two chambers. The red chamber was for the plasma while the white chamber was for the buffer. Test items and Control items (Warfarin and Propranolol) were prepared at a required test concentration of 10 μM in Human/Rat plasma (pH adjusted to 7.40) using 10 mM DMSO stocks (final DMSO concentration was 0.1%). 300 μL of plasma sample was added into the sample chamber. 500 μL of buffer was added into the buffer chamber. After sealing the RED device with an adhesive film, incubation was done at 37° C. with shaking at 300 rpm for 4 h. Following incubation, an aliquot of 50 μL was removed from each well (plasma and buffer side) and diluted with equal volume of opposite matrix to nullify the matrix effect and subjected for sample extraction.
(§3) All samples were extracted by Protein Precipitation method by adding 200 μL of ice cold Acetonitrile and 50 μL of internal standard (Haloperidol at 0.1 μg/mL) solution. The tubes were vortex mixed thoroughly and centrifuged at 10000 rpm, 4° C. for 10 minutes. A clear supernatant of 200 μL of samples were submitted for LC-MS/MS analysis.

[8] = Rat plasma protein binding (Rapid Equilibrium Dialysis); type: in vitro ADME; conditions: pH 7.4, RED device, 37° C.
Experimental: as §2, §3

T1 sequence (P08684 whole entry): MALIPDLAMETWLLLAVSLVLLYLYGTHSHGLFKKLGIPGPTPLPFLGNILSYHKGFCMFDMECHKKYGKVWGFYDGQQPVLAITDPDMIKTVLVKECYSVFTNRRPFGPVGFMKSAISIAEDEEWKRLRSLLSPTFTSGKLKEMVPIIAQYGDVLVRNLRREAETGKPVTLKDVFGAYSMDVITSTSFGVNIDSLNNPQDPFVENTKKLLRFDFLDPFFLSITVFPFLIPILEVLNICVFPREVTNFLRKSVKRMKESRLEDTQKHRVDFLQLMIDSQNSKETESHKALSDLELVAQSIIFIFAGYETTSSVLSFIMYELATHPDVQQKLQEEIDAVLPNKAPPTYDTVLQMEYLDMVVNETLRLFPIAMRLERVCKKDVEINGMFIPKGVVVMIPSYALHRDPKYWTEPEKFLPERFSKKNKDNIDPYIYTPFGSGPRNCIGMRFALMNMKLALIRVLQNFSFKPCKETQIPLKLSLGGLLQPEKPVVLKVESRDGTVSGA

| Compound | inhibition at 0.01 µM (enterovirus strain 6) [%] | inhibition at 0.1 µM (enterovirus strain 6) [%] | inhibition at 0.01 µM (enterovirus strain 30) [%] | inhibition at 0.1 µM (enterovirus strain 30) [%] | inhibition at 0.01 µM (enterovirus D68) [%] | inhibition at 0.1 µM (enterovirus D68) [%] | inhibition at 0.01 µM (enterovirus strain 71) [%] | inhibition at 0.1 µM (enterovirus strain 71) [%] | inhibition at 0.01 µM [1] [%] | inhibition at 0.1 µM [1] [%] | inhibition at 0.01 µM [2] [%] | inhibition at 0.1 µM [2] [%] | inhibition at 0.01 µM [3] [%] | inhibition at 0.1 µM [3] [%] | inhibition at 0.01 µM [4] [%] | inhibition at 0.1 µM [4] [%] | inhibition at 0.01 µM (polio virus strain 1) [%] | inhibition at 0.1 µM (polio virus strain 1) [%] | IC50 (CYP3A4) [µM] | % remaining after incubation for 60 min, Human microsomes [5] [%] | also measured |
| --- | --- | --- | --- | --- | --- | --- | --- | --- | --- | --- | --- | --- | --- | --- | --- | --- | --- | --- | --- | --- | --- |
| Cc1cc(NCc2ccncc2)n2nc(C)c(-c3ccc4c(c3)c(C)nn4C)c2n1 [Comp. Y, 3-(1,3-dimethyl-1H-indazol-5-yl)-2,5-dimethyl-N-[(pyridin-4-yl)methyl]pyrazolo[1,5-a]pyrimidin-7-amine, reference compound] | 100 | 100 | 100 | 100 | 85 | 80 | 87 | 86 | 100 | 100 | 100 | 100 | 100 | 100 | 85 | 100 | 100 | 100 | 0.28 | 86.2 | AUC(0-inf) (in vivo): 15500 ± 1900 ng·h/mL; AUC(0-t) (in vivo): 14800 ± 2600 ng·h/mL; AUCextrap (in vivo): 4.6 ± 5.6%; Cmax (in vivo): 2300 ± 300 ng/mL; MRT last (in vivo): 4.4 ± 1.1 h; Tmax (in vivo): 1.2 ± 0.8 h; half-life (in vivo): 3.4 ± 1.2 h; % remaining after incubation for 60 min, Rat microsomes [6]: 89.7%; fraction unbound at 4 h, 10 μM [7]: 0.027; fraction unbound at 4 h, 10 μM [8]: 0.024 |
| COc1ccc(-c2c(C)nc3c(NCc4ccnc(C)c4)cc(C)nn23)cc1OC [Ex. 1, 3-(3,4-dimethoxyphenyl)-2,6-dimethyl-N-((2-methylpyridin-4-yl)methyl)imidazo[1,2-b]pyridazin-8-amine] | 100 | 100 | 100 | 100 | 85 | 83 | 68 | 77 | 93 | 100 | 100 | 100 | 100 | 100 | 80 | 100 | 100 | 100 | 23.1 |  |  |
| Cc1cc(NCc2ccnc(F)c2)n2nc(C)c(-c3ccc4c(c3)c(C)nn4C)c2n1 [Ex. 3, 3-(1,3-dimethyl-1H-indazol-5-yl)-2,5-dimethyl-N-[(2-fluoropyridin-4-yl)methyl]pyrazolo[1,5-a]pyrimidin-7-amine] | 88 | 100 | 100 | 100 | 76 | 70 | 82 | 81 | 68 | 100 | 100 | 100 | 100 | 100 | 48 | 100 | 100 | 100 | > 25 | 96.1 | % remaining after incubation for 60 min, Rat microsomes [6]: 99.4%; fraction unbound at 4 h, 10 μM [7]: 0.022; fraction unbound at 4 h, 10 μM [8]: 0.059 |
| COc1ccc(-c2c(C)nn3c(NCc4ccncc4)cc(C)nc23)cc1OC [X, 3-(3,4-dimethoxyphenyl)-2,5-dimethyl-N-(pyridin-4-ylmethyl)pyrazolo[1,5-a]pyrimidin-7-amine, reference compound] | 100 | 100 | 100 | 100 | 86 | 86 | 82 | 82 | 100 | 100 | 100 | 100 | 100 | 100 | 100 | 100 | 100 | 100 | 0.97 |  |  |
| COc1ccc(-c2c(C)nc3c(NCc4ccnc(F)c4)cc(C)nn23)cc1OC [compound 2, 3-(3,4-dimethoxyphenyl)-N-((2-fluoropyridin-4-yl)methyl)-2,6-dimethylimidazo[1,2-b]pyridazin-8-amine] | 100 | 100 | 100 | 100 | 73 | 68 | 76 | 75 | 100 | 100 | 100 | 100 | 100 | 100 | 84 | 100 | 100 | 100 | > 25 |  |  |
